Laboratory results as given in the supplement of paper PMC10307832.

Experiments:
Assay in all cases: relative viability (nuclei count vs DMSO), 5 days (fraction); higher = more cells survive
NCI-H727 = test system: NCI-H727
Summary of the method: (§1)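 Relative viability equals treated-well nuclei counts divided by vehicle-well nuclei counts. Counts came from 4× images of lung cancer cell lines grown in 1536-well plates for 5 days after pin-tool dosing on the day after seeding. Dosing used one drug alone or a fixed anchor-drug dose plus five library-drug doses (not always all listed) in √10 steps, and values are medians of duplicate plates.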

NCI-H1666 = test system: NCI-H1666
Summary of the method: as §1

NCI-H2342 = test system: NCI-H2342
Summary of the method: as §1

BEN = test system: BEN
Summary of the method: as §1

NCI-H650 = test system: NCI-H650
Summary of the method: as §1

NCI-H647 = test system: NCI-H647
Summary of the method: as §1

LXF-289 = test system: LXF-289
Summary of the method: as §1

HCC-827 = test system: HCC-827
Summary of the method: as §1

NCI-H441 = test system: NCI-H441
Summary of the method: as §1

NCI-H1915 = test system: NCI-H1915
Summary of the method: as §1

NCI-H2228 = test system: NCI-H2228
Summary of the method: as §1

SW 1573 = test system: SW 1573
Summary of the method: as §1

EPLC-272H = test system: EPLC-272H
Summary of the method: as §1

NCI-H2347 = test system: NCI-H2347
Summary of the method: as §1

NCI-H2170 = test system: NCI-H2170
Summary of the method: as §1

NCI-H1437 = test system: NCI-H1437
Summary of the method: as §1

NCI-H522 = test system: NCI-H522
Summary of the method: as §1

NCI-H23 = test system: NCI-H23
Summary of the method: as §1

NCI-H358 = test system: NCI-H358
Summary of the method: as §1

LU99A = test system: LU99A
Summary of the method: as §1

NCI-H322M = test system: NCI-H322M
Summary of the method: as §1

SK-MES-1 = test system: SK-MES-1
Summary of the method: as §1

HOP-62 = test system: HOP-62
Summary of the method: as §1

## Oc1nc(-c2ccc(C(F)(F)F)cc2)nc2c1CSCC2 [XAV939] + CC(=O)c1c(C)c2cnc(Nc3ccc(N4CCNCC4)cn3)nc2n(C2CCCC2)c1=O [Palbociclib] (partner 0.5 µM)
NCI-H727; first compound 0.08 µM
  relative viability: 0.711
NCI-H727; first compound 0.8 µM
  relative viability: 0.642
NCI-H727; first compound 2.53 µM
  relative viability: 0.644
NCI-H1666; first compound 0.08 µM
  relative viability: 0.678
NCI-H1666; first compound 0.253 µM
  relative viability: 0.552
NCI-H1666; first compound 0.8 µM
  relative viability: 0.623
NCI-H1666; first compound 2.53 µM
  relative viability: 0.64
NCI-H2342; first compound 0.08 µM
  relative viability: 0.555
NCI-H2342; first compound 0.253 µM
  relative viability: 0.464
NCI-H2342; first compound 0.8 µM
  relative viability: 0.468
NCI-H2342; first compound 2.53 µM
  relative viability: 0.467
BEN; first compound 0.08 µM
  relative viability: 0.508
BEN; first compound 0.253 µM
  relative viability: 0.438
BEN; first compound 0.8 µM
  relative viability: 0.485
BEN; first compound 2.53 µM
  relative viability: 0.45
NCI-H650; first compound 0.08 µM
  relative viability: 0.376
NCI-H650; first compound 0.253 µM
  relative viability: 0.35
NCI-H650; first compound 0.8 µM
  relative viability: 0.333
NCI-H650; first compound 2.53 µM
  relative viability: 0.303
NCI-H647; first compound 0.08 µM
  relative viability: 0.406
NCI-H647; first compound 0.253 µM
  relative viability: 0.298
NCI-H647; first compound 0.8 µM
  relative viability: 0.277
NCI-H647; first compound 2.53 µM
  relative viability: 0.293
LXF-289; first compound 0.08 µM
  relative viability: 0.565
LXF-289; first compound 0.253 µM
  relative viability: 0.571
LXF-289; first compound 0.8 µM
  relative viability: 0.588
LXF-289; first compound 2.53 µM
  relative viability: 0.632
HCC-827; first compound 0.08 µM
  relative viability: 0.571
HCC-827; first compound 0.253 µM
  relative viability: 0.459
HCC-827; first compound 0.8 µM
  relative viability: 0.584
HCC-827; first compound 2.53 µM
  relative viability: 0.517
NCI-H441; first compound 0.08 µM
  relative viability: 0.222
NCI-H441; first compound 0.253 µM
  relative viability: 0.189
NCI-H441; first compound 0.8 µM
  relative viability: 0.182
NCI-H441; first compound 2.53 µM
  relative viability: 0.189
NCI-H1915; first compound 0.08 µM
  relative viability: 0.592
NCI-H1915; first compound 0.253 µM
  relative viability: 0.54
NCI-H1915; first compound 0.8 µM
  relative viability: 0.567
NCI-H1915; first compound 2.53 µM
  relative viability: 0.511
NCI-H2228; first compound 0.08 µM
  relative viability: 0.971
NCI-H2228; first compound 0.253 µM
  relative viability: 0.613
NCI-H2228; first compound 0.8 µM
  relative viability: 0.664
NCI-H2228; first compound 2.53 µM
  relative viability: 0.657
SW 1573; first compound 0.08 µM
  relative viability: 0.414
SW 1573; first compound 0.253 µM
  relative viability: 0.3
SW 1573; first compound 0.8 µM
  relative viability: 0.326
SW 1573; first compound 2.53 µM
  relative viability: 0.279
EPLC-272H; first compound 0.08 µM
  relative viability: 0.342
EPLC-272H; first compound 0.253 µM
  relative viability: 0.251
EPLC-272H; first compound 0.8 µM
  relative viability: 0.305
EPLC-272H; first compound 2.53 µM
  relative viability: 0.332
NCI-H2347; first compound 0.08 µM
  relative viability: 0.403
NCI-H2347; first compound 0.253 µM
  relative viability: 0.412
NCI-H2347; first compound 0.8 µM
  relative viability: 0.435
NCI-H2347; first compound 2.53 µM
  relative viability: 0.429
NCI-H2170; first compound 0.08 µM
  relative viability: 0.41
NCI-H2170; first compound 0.253 µM
  relative viability: 0.263
NCI-H2170; first compound 0.8 µM
  relative viability: 0.436
NCI-H2170; first compound 2.53 µM
  relative viability: 0.322
NCI-H1437; first compound 0.08 µM
  relative viability: 0.32
NCI-H1437; first compound 0.253 µM
  relative viability: 0.297
NCI-H1437; first compound 0.8 µM
  relative viability: 0.301
NCI-H1437; first compound 2.53 µM
  relative viability: 0.194
NCI-H522; first compound 0.08 µM
  relative viability: 1.05
NCI-H522; first compound 0.253 µM
  relative viability: 0.884
NCI-H522; first compound 0.8 µM
  relative viability: 0.973
NCI-H522; first compound 2.53 µM
  relative viability: 1.03
NCI-H23; first compound 0.08 µM
  relative viability: 0.529
NCI-H23; first compound 0.8 µM
  relative viability: 0.465
NCI-H23; first compound 2.53 µM
  relative viability: 0.386
NCI-H358; first compound 0.08 µM
  relative viability: 0.149
NCI-H358; first compound 0.253 µM
  relative viability: 0.109
NCI-H358; first compound 0.8 µM
  relative viability: 0.154
NCI-H358; first compound 2.53 µM
  relative viability: 0.166
LU99A; first compound 0.08 µM
  relative viability: 0.477
LU99A; first compound 0.253 µM
  relative viability: 0.406
LU99A; first compound 0.8 µM
  relative viability: 0.433
LU99A; first compound 2.53 µM
  relative viability: 0.424
NCI-H322M; first compound 0.08 µM
  relative viability: 0.521
NCI-H322M; first compound 0.253 µM
  relative viability: 0.464
NCI-H322M; first compound 0.8 µM
  relative viability: 0.456
NCI-H322M; first compound 2.53 µM
  relative viability: 0.433
SK-MES-1; first compound 0.08 µM
  relative viability: 0.288
SK-MES-1; first compound 0.253 µM
  relative viability: 0.299
SK-MES-1; first compound 0.8 µM
  relative viability: 0.338
SK-MES-1; first compound 2.53 µM
  relative viability: 0.297
HOP-62; first compound 0.08 µM
  relative viability: 0.467
HOP-62; first compound 0.253 µM
  relative viability: 0.4
HOP-62; first compound 0.8 µM
  relative viability: 0.378
HOP-62; first compound 2.53 µM
  relative viability: 0.313
